# Read-outs that look alike come from different tables or passages of the source.
# B1: M-CSF: macrophage colony-stimulating factor, mitogenic compound used to propagate MDSCs (protein, UniProt P09603 33-554, looked up)
# Macrophage colony-stimulating …: EEVSEYCSHMIGSGHLQSLQRLIDSQMETSCQITFEFVDQEQLKDPVCYLKKAFLLVQDIMEDTMRFRDNTPNAIAIVQLQELSLRLKSCFTKDYEEHDKACVRTFYETPLQLLEKVKNVFNETKNLLDKDWNIFSKNCNNSFAECSSQDVVTKPDCNCLYPKAIPSSDPASVSPHQPLAPSMAPVAGLTWEDSEGTEGSSLLPGEQPLHTVDPGSAKQRPPRSTCQSFEPPETPVVKDSTIGGSPQPRPSVGAFNPGMEDILDSAMGTNWVPEEASGEASEIPVPQGTELSPSRPGGGSMQTEPARPSNFLSASSPLPASAKGQQPADVTGTALPRVGPVRPTGQDWNHTPQKTDHPSALLRDPPEPGSPRISSLRPQGLSNPSTLSAQPQLSRSHSSGSVLPLGELEGRRSTRDRRSPAEPEGGPASEGAARPLPRFNSVPLTDTGHERQSEGSFSPQLQESVFHLLVPSVILVLLAVGGLLFYRWRRRSHQEPQRADSPLEQPEGSPLTQDDRQVELPV
# Experiments:
# MDSC cultures [1] = assay: Insulin release from MDSC cultures (insulin ELISA); assay type: cell-based, human; design: insulin release with osmolarity control: dose or concentration left out as unconfirmed
# Procedure: Insulin release. MDSC cultures incubated in 24-well tissue culture plates (Costar, Cambridge, Mass.) at 70-80% confluence were treated for 4-5 days with LPS or CD40Ab. Insulin secretion was assessed as previously described in Schuit, F., et al., J. Biol. Chem. 272:18572-18579 (1997), using an insulin ELISA kit (Linco Research, MO). When required, the untreated or treated cultures were also pre-incubated for 30 min with […] diazoxide, 10 mM tolbudamide, or […] IBMX.
# [2] = system: MDSC colonies Clone 1 and Clone 2; details: seven days; for Immunostained cells (%), Keratins (Epithelial): 100 ng/ml EGF; for Immunostained cells (%), AFP (Hepatocyte): 50 ng/ml HGF; for Immunostained cells (%), vWF (Endothelial): 50 ng/ml VEGF; for Immunostained cells (%), MAP1-B (Neuronal): 200 ng/ml NGF
# Procedure: To determine whether progeny of colonies derived from single MDSCs can be induced to differentiate into distinct cell lineages, cells from a five-day, 50 ng/ml, M-CSF-treated culture enriched to contain 99.97% peripheral blood monocytes were inoculated into 12 U-bottom tissue culture plates, 96 wells each, at 0.8 cells/well in 0.1-0.2 ml growth medium. The cells were then incubated in the presence of 50 ng/ml M-CSF and 1,000 units/ml LIF for 15-20 days. Additionally, one plate was incubated with 25% conditioned medium from a five-day, 50 ng/ml, M-CSF treated culture. […] The few wells that contained more than one cell were excluded from further experimentation. Medium was replaced every 5-7 days.
# At 45-52 days, these cells were dispersed by forceful pipetting, without lidocaine, into flat-bottom, 96-well, tissue culture plates. […] Two colonies of MDSCs, each of which had arisen from a single cell, were chosen for further differentiation experiments and were termed Clone 1 and Clone 2. […] These antibodies separately recognized cell-surface markers that included the T lymphocyte marker CD3, the epithelial marker keratin, the endothelial marker vWF, the neuronal marker MAP1-B, and the hepatocyte marker AFP.
# MDSC cultures [3] = assay: EGF-induced epithelial cell differentiation of MDSC cultures; assay type: cell-based, human; details: 100 ng/ml EGF, 4 days
# Excerpt: To determine whether MDSCs differentiate into lineages other than those of blood cells, the ability to differentiate into epithelial cells was initially tested. […] Only 4±1% of control cells stained for keratins and 3±2% for E-cadherin. Cells that stained positive for E-cadherin consistently stained for keratins.
# MDSC cultures [4] = assay: HGF-induced hepatocyte differentiation of MDSC cultures; assay type: cell-based, human
# Excerpt: A smaller fraction of 33±4% also immunostained for cytokeratin 7, which is a marker of bile duct epithelium (Ruck et al., Histopathology 31: 324-329 (1997)). Only 8±5% of control cells immunostained for albumin, 6±5% for AFP, and 7±3% for cytokeratin 7.
# MDSC cultures [5] = assay: VEGF-induced endothelial cell differentiation of MDSC cultures; details: 50 ng/ml VEGF, 5-7 days
# Procedure: MDSC cultures prepared as described above were treated with 50 ng/ml of recombinant human vascular endothelial growth factor165 isoform (VEGF) for 5-7 days.
# MDSC cultures [6] = assay: bNGF-induced neuronal cell differentiation of MDSC cultures; assay type: cell-based, human; details: 200 ng/ml bNGF
# Procedure: To examine the ability of MDSCs to mature along yet another cell lineage, the effect of nerve growth factor (bNGF), an inducer of neuronal differentiation (McAllister et al., Cell. Mol. Life Sci., 58:1054-1060 (2001)), was tested. […] After 5-8 days these processes, some of which were exceedingly long, formed cell-cell contacts and created the appearance of a neural network. These mature cells were further characterized by immunostaining for neuron-specific enolase (NSE), neurofilament (NF) and microtubule-associated protein-1B (MAP-1B), which are well-known markers of neuronal cells (Encinas et al., J. Neurochem., 75:991-1003 (2000)).
# [7] = system: freshly cultured peripheral blood monocytes; assay: bNGF treatment of freshly cultured peripheral blood monocytes; assay type: cell-based, human; details: bNGF for 7 or 20 days
# MDSCs = assay: Dispersion of MDSCs from the culture dish by standard digestion; assay type: cell-based, human; details: standard digestion for up to 60 minutes
# Procedure: In this example, a feature of the MDSCs is resistance to dispersion by trypsin and/or EDTA, or dispase. […] Therefore, to obtain cell suspensions for subculture, the MDSCs were dispersed by forceful pipetting after incubation with 2% lidocaine in a PBS solution for 5-8 minutes, with the exception of the work described in Example 8.
# [8] = system: human peripheral blood monocytes; assay: Generation and growth of MDSCs in cultured peripheral blood monocytes (morphological examination); assay type: cell-based
# Procedure: Peripheral blood monocyte (PBM) preparations from about 50 ml buffy coats samples (each from 500 ml peripheral blood) of healthy individuals (LifeSource Blood Services, Glenview, Ill.) were obtained by a selective attachment method as previously described (Hoklland, M. et al., Cell Biology, a laboratory handbook, Celis J. E. ed., Academic Press, 1: 179-181 (1994)). Buffy coat cell samples of 20-25 ml, which were diluted earlier with an equal volume of RPMI 1640 medium (Life Technologies, Inc.), were carefully layered over 20 ml Ficoll-Hypaque (γ=1.077) in 50 ml centrifuge tubes and then centrifuged using a Beckman CPKR centrifuge and a GH-3.7 horizontal rotor at 3,500 rpm (2700 g) for 25 minutes at 4° C. After carefully harvesting the mononuclear cells at the interface, cells were washed 2-3 times with RPMI 1640 medium by centrifugation using a Beckman CPKR centrifuge and a GH-3.7 horizontal rotor at 1,000 rpm (250 g) for 10 minutes. The cells were then used for culture and/or stored in liquid nitrogen in a 90% bovine calf serum and 10% dimethyl sulfoxide solution. The cells, including those obtained from storage in liquid nitrogen, were incubated at 2-3×10^7 cells/15 cm dish. After 8-12 hours incubation at 37° C. (8% CO2), the floating cells were removed and the dishes were rinsed 5 times with RPMI 1640 medium. The attached cells were then detached from the surface of the dishes by forceful pipetting with 5-10 ml of RPMI 1640 medium supplemented with 10% bovine calf serum.
# The percentage of PBM was verified by immunostaining with an R-phycoerythin-conjugated mouse anti-human CD14 monoclonal antibody using a Becton Dickinson FACScan. The fraction of CD14 cells in these cell preparations, which were usually used in the experiments, was 90-95%. In a number of experiments, the CD14-immunostained cells were further isolated to a purity of 99.97% by using a droplet cell-sorting method by means of a 5 detector Becton Dickinson FACStarPlus Cell Sorter. The isolated PBMs were inoculated at 1×10^5 cells/ml in 8-well LabTek chamber slides (Nunc, Inc., Naperville, Ill.) at 0.4 ml/well in a 37° C. humidified atmosphere containing 8% CO2. Every five to seven days, one-half of the culture medium was replaced with fresh growth medium. This medium consisted of RPMI-1640 supplemented with 10% heat-inactivated bovine calf serum (Harlan, Indianapolis, Ind.), 100 units/ml penicillin, 100 μg/ml streptomycin, and 2 mM L-glutamine (Life Technologies).
# Five preparations of cultured human peripheral blood monocytes, each from a different individual, were treated with 50 ng/ml M-CSF (Zhoa et al., Proc. Natl. Acad. Sci., 100:2426-2431 (2003); incorporated herein by reference in its entirety). After five days of incubation, the cultures contained two major morphologically distinct subsets of cells. The less abundant of the two subsets, containing about 25-35% of the total cells, was composed of elongated cells that morphologically resembled fibroblasts and were termed monocyte-derived stem cells (MDSCs). The other subset, containing about 65-75% of the total, was composed of standard macrophages, which were termed s-macrophages or standard macrophages (s-MΦ) (FIG. 1). […]
# In order to determine whether the MDSCs were simply replicating progenitors of s-MΦ, five preparations of cultured peripheral blood monocytes, each from a different human, were treated with 50 ng/ml M-CSF and the number of MDSCs and s-MΦ were determined over a period of 14 days by morphological examination. […]
# [9] = 50 ng/ml M-CSF, five days, five monocyte preparations
molecule,measurement,setting,value
OC[C@@H](O)[C@@H](O)[C@H](O)[C@H](O)CO [Mannite],insulin release with osmolarity control,MDSC cultures [1],little to no insulin release
CC1=NS(=O)(=O)c2cc(Cl)ccc2N1 [diazoxide],effect on LPS- or CD40Ab-induced insulin release,"MDSC cultures [1]; high glucose, 30 min pre-incubation",effectively inhibited
CCCCNC(=O)NS(=O)(=O)c1ccc(C)cc1 [tolbutamide],effect on LPS- or CD40Ab-induced insulin release,"MDSC cultures [1]; low glucose (5 mM), 30 minutes, 10 μM tolbudamide, 100 μM IBMX",markedly stimulated
EGF: promoter of epithelial cell growth and differentiation,"Immunostained cells (%), Keratins (Epithelial)",[2]; Clone 1,89%
same,"Immunostained cells (%), Keratins (Epithelial)",[2]; Clone 2,76%
same,MDSCs displaying epithelial cell morphology,MDSC cultures [3],about 70%
same,cells immunostaining for E-cadherin,MDSC cultures [3],68±5%
same,cells immunostaining for pan-keratins,MDSC cultures [3],71±4%
HGF: recombinant human hepatocyte growth factor,"Immunostained cells (%), AFP (Hepatocyte)",[2]; Clone 1,88%
same,"Immunostained cells (%), AFP (Hepatocyte)",[2]; Clone 2,75%
same,cells displaying round or oval-like flattened morphology,"MDSC cultures [4]; 100 ng/ml HGF, 5-7 days",75-80%
same,cells immunostaining for cytokeratin 7,"MDSC cultures [4]; 100 ng/ml HGF, 5-7 days",33±4%
same,treated cells immunostaining for AFP,"MDSC cultures [4]; 100 ng/ml HGF, 5-7 days",81±7%
same,treated cells immunostaining for albumin,"MDSC cultures [4]; 100 ng/ml HGF, 5-7 days",75±7%
same,Percentage of cells displaying immunostaining for AFP,MDSC cultures [4]; HGF 50 ng/ml (Table 3),81 ± 7%
same,Percentage of cells displaying immunostaining for Albumin,MDSC cultures [4]; HGF 50 ng/ml (Table 3),75 ± 7%
same,Percentage of cells displaying immunostaining for Cytokeratin 7,MDSC cultures [4]; HGF 50 ng/ml (Table 3),33 ± 4%
VEGF,"Immunostained cells (%), vWF (Endothelial)",[2]; Clone 1,80%
same,"Immunostained cells (%), vWF (Endothelial)",[2]; Clone 2,87%
same,cells displaying endothelial cell morphology,MDSC cultures [5],about 70%
same,"cells immunostaining for VEGF-R2, VEGF-R3 and vWF",MDSC cultures [5],74±3%
same,"cells immunostaining for neuronal markers NSE, NF and MAP-1B",MDSC cultures [5],31±4%
"bNGF: nerve growth factor, an inducer of neuronal differentiation","Immunostained cells (%), MAP1-B (Neuronal)",[2]; Clone 1,83%
same,"Immunostained cells (%), MAP1-B (Neuronal)",[2]; Clone 2,80%
same,MDSCs displaying neuronal morphology,MDSC cultures [6],about 90%
same,"cells with immunostaining for NSE, NF and MAP-1B",MDSC cultures [6]; 5-8 days,about 90%
same,"cells with robust immunostaining for NSE, NF and MAP-1B",MDSC cultures [6]; three days,25%
same,neuronal differentiation,[7],Little to no neuronal differentiation
trypsin,removal of MDSCs from the surface of the culture dish,MDSCs,failed to remove the MDSCs
B1,MDSCs in confluent cultures,"[8]; 50 ng/ml M-CSF, after day 10",80-90%
same,MDSC population replication interval,"[8]; 50 ng/ml M-CSF, estimated from growth curve after 6 days",three
same,"MDSCs, share of the total cells",[8]; [9],25-35%
same,"standard macrophages (s-MΦ), share of the total cells",[8]; [9],65-75%
same,cells with MDSC morphology,"[8]; 50 ng/ml, 7-9 days",70-80%

# — patent publication US20050260158A1, “Human stem cell materials and methods” (priority 2003, published 2005)
